Where “and” joins values, the source holds several entries; their conditions need not be identical. Equal values may be shown once.
Tests used:
Type in all cases: in vivo
[1] = tested on: wheat; assay: Pre-emergence test, damage to crop plants; details: application rate 1280 g/ha, after 3 weeks
From the text: (§1) Seeds of monocotyledonous and dicotyledonous weed plants and crop plants are placed in wood-fiber pots in sandy loam and covered with soil. The compounds according to the invention, formulated in the form of wettable powders (WP) or as emulsion concentrates (EC), are then applied as aqueous suspension or emulsion at a water application rate of 600 to 800 l/ha (converted) with the addition of 0.2% of wetting agent to the surface of the covering soil. After the treatment, the pots are placed in a greenhouse and kept under good growth conditions for the test plants. The damage to the test plants is assessed visually after a test period of 3 weeks by comparison with untreated controls (herbicidal activity in percent (%): 100% action=the plants have died, 0% action=like control plants). […] The compounds Nos. I-a-38 and I-a-39 each show, at an application rate of 1280 g/ha, an of at least 80% against Echinochloa crus galli and Veronica persica and at the same time no damage in corn and oilseed rape.

[2] = tested on: Setaria viridis; assay: Pre-emergence herbicidal action against weed plants; details: application rate 1280 g/ha, visual assessment after 3 weeks
From the text: as §1

[3] = tested on: Lolium multiflorum; assay: as above; details: application rate 1280 g/ha, visual assessment after 3 weeks
From the text: as §1

[4] = tested on: rice; assay: Post-emergence test, damage to crop plants; details: after about 3 weeks
Experimental: (§2) Seeds of monocotyledonous and dicotyledonous weed and crop plants are placed in sandy loam in wood-fiber pots, covered with soil and cultivated in a greenhouse under good growth conditions. 2 to 3 weeks after sowing, the test plants are treated at the one-leaf stage. The compounds according to the invention, formulated in the form of wettable powders (WP) or as emulsion concentrates (EC), are then sprayed as aqueous suspension or emulsion at a water application rate of 600 to 800 l/ha (converted) with the addition of 0.2% of wetting agent onto the green parts of the plants. After the test plants have been left to stand in the greenhouse under optimal growth conditions for about 3 weeks, the action of the formulations is assessed visually in comparison to untreated controls (herbicidal action in percent (%): 100% activity=the plants have died, 0% activity=like control plants). Here, the compounds Nos. I-a-39 and I-a-42, for example, show, at an application rate of 320 g/ha, an activity of at least 80% against Setaria viridis and at the same time no damage in corn and oilseed rape.

[5] = tested on: corn; assay: Post-emergence test, damage to crop plants; details: after about 3 weeks
Experimental: as §2

[6] = tested on: oilseed rape; assay: Post-emergence test, damage to crop plants; details: application rate 320 g/ha, after about 3 weeks
Experimental: as §2

[7] = tested on: wheat; assay: Post-emergence test, damage to crop plants; details: application rate 80 g/ha, after about 3 weeks
Experimental: as §2

[8] = tested on: rice; assay: Pre-emergence test, damage to crop plants; details: application rate 1280 g/ha, after 3 weeks
From the text: as §1

[9] = tested on: Cyperus serotinus; assay: Pre-emergence herbicidal action against weed plants; details: application rate 1280 g/ha, visual assessment after 3 weeks
From the text: as §1

[10] = tested on: Alopecurus myosuroides; assay: as above; details: application rate 1280 g/ha, visual assessment after 3 weeks
From the text: as §1

[11] = tested on: larvae of the mustard beetle (Phaedon cochleariae); assay: Phaedon test (PHAECO spray treatment); details: application rate 500 g/ha, Chinese cabbage leaf discs sprayed, after 7 days
Experimental: • Solvent: 78.0 parts by weight of acetone • 1.5 parts by weight of dimethylformamide • Emulsifier: 0.5 part by weight of alkylaryl polyglycol ether
To produce a suitable preparation of active compound, 1 part by weight of active compound is mixed with the stated amounts of solvent and emulsifier, and the concentrate is diluted with emulsifier-containing water to the desired concentration. Discs of Chinese cabbage leaves (Brassica pekinensis) are sprayed with an active compound formulation of the desired concentration and, after drying, populated with larvae of the mustard beetle (Phaedon cochleariae). After 7 days, the activity in % is determined. 100% means that all of the beetle larvae have been killed; 0% means that none of the beetle larvae have been killed. In this test, for example, the following compounds of the Preparation Examples show, at an application rate of 500 g/ha, an activity of 100%: I-a-29, I-a-40.

[12] = tested on: corn; assay: Pre-emergence test, damage to crop plants; details: application rate 1280 g/ha, after 3 weeks
From the text: as §1

[13] = tested on: oilseed rape; assay: Pre-emergence test, damage to crop plants; details: application rate 1280 g/ha, after 3 weeks
From the text: as §1

[14] = tested on: Polygonum convolvulus; assay: Pre-emergence herbicidal action against weed plants; details: application rate 1280 g/ha, visual assessment after 3 weeks
From the text: as §1

[15] = tested on: greenhouse red spider mite (Tetranychus urticae); assay: Tetranychus test, OP-resistant (TETRUR spray treatment); details: application rate 500 g/ha, bean leaf discs sprayed, after 6 days
Experimental: (§3) • Solvent: 78.0 parts by weight of acetone • 1.5 parts by weight of dimethylformamide • Emulsifier: 0.5 parts by weight of alkylaryl polyglycol ether
To produce a suitable preparation of active compound, 1 part by weight of active compound is mixed with the stated amounts of solvent and emulsifier, and the concentrate is diluted with emulsifier-containing water to the desired concentration. Discs of bean leaves (Phaseolus vulgaris) infested by all stages of the greenhouse red spider mite (Tetranychus urticae) are sprayed with an active compound formulation of the desired concentration. After 6 days, the activity in % is determined. 100% means that all of the spider mites have been killed; 0% means that none of the spider mites have been killed.

[16] = tested on: Lolium multiflorum; assay: Post-emergence herbicidal action against weed plants; details: application rate 320 g/ha, visual assessment after about 3 weeks
Experimental: as §2

[17] = tested on: caterpillars of the armyworm (Spodoptera frugiperda); assay: Spodoptera frugiperda test (SPODFR spray treatment); details: application rate 500 g/ha, corn leaf disks sprayed, after 7 days
Experimental: as §3
To produce a suitable preparation of active compound, 1 part by weight of active compound is mixed with the stated amounts of solvent and emulsifier, and the concentrate is diluted with emulsifier-containing water to the desired concentration. Disks of corn leaves (Zea mays) are sprayed with an active compound preparation of the desired concentration and, after drying, populated with caterpillars of the armyworm (Spodoptera frugiperda). After 7 days, the activity in % is determined. 100% means that all of the caterpillars have been killed; 0% means that none of the caterpillars have been killed. In this test, for example, the following compounds of the Preparation Examples show, at an application rate of 500 g/ha, an activity of 85%: […], I-a-40. In this test, for example, the following compounds of the Preparation Examples show, at an application rate of 500 g/ha, an activity of 100%: I-a-38, I-a-39.

“6-(4′-chloro-4-methylbiphenyl-3-yl)-5-oxo-4-(prop-2-yn-1-yl)-4,5-dihydro[1,3]thiazolo[4,5]pyridin-7-yl 2-methylpropanoate [I-a-42]” was tested. Which damage in wheat [1] did it give?
The damage in wheat was “no damage”.

What about the “herbicidal activity against Setaria viridis” value [2] of the same compound?
The value was “at least 80%”.

What about the “herbicidal activity against Lolium multiflorum” value [3] of the same compound?
The value was “at least 80%”.

And the damage in rice ([4]; application rate 80 g/ha)?
The damage in rice was “no damage”.

What about the damage in corn ([5]; application rate 80 g/ha) of the same compound?
The damage in corn was “no damage”.

And the damage in corn ([5]; application rate 320 g/ha)?
The damage in corn was “no damage”.

What about the “damage in oilseed rape” value [6] of the same compound?
Its value is “no damage”.

And the damage in wheat [7]?
Its damage in wheat is “no damage”.

With `Cn1c(=O)c(-c2c(F)ccc(-c3ccc(Cl)cc3Cl)c2Cl)c(O)c2scnc21` [I-a-19] as the compound, how does the damage in rice [8] read?
The damage in rice was “no damage”.

What about the damage in wheat [1] of the same compound?
Its damage in wheat is “no damage”.

And the “herbicidal activity against Cyperus serotinus” value [9]?
Its value is “at least 80%”.

What about the “herbicidal activity against Alopecurus myosuroides” value [10] of the same compound?
The value was “at least 80%”.

For `C#CCn1c(=O)c(-c2c(Cl)cc(-c3ccc(Cl)cc3)cc2CC)c(O)c2scnc21` [I-a-29], which “activity in % (beetle larvae killed)” value [11] is on record?
The value was 100%.

`O=c1c(-c2ccc(-c3ccc(Cl)cc3)cc2Cl)c(OCC(F)F)c2scnc2n1CC(F)F` [I-a-32] was tested. Which damage in corn [12] did it give?
The damage in corn was “no damage”.

And the “damage in oilseed rape” value [13]?
Its value is “no damage”.

What about the “herbicidal activity against Polygonum convolvulus” value [14] of the same compound?
Its value is “at least 80%”.

`C#CCn1c(=O)c(-c2cc(-c3ccc(Cl)cc3)ccc2Cl)c(O)c2scnc21` [I-a-37] was tested. Which “activity in % (spider mites killed)” value [15] did it give?
Its value is 85% and 90%.

For `Cc1ccc(-c2ccc(Cl)cc2)cc1-c1c(O)c2scnc2n(C)c1=O` [I-a-38], which damage in corn [12] is on record?
The damage in corn was “no damage”.

What about the “damage in oilseed rape” value [13] of the same compound?
The value was “no damage”.

And the “herbicidal activity against Lolium multiflorum” value [16]?
The value was “at least 80%”.

And the “activity in % (spider mites killed)” value [15]?
The value was 85%.

What about the damage in rice ([4]; application rate 320 g/ha) of the same compound?
The damage in rice was “no damage”.

And the damage in corn ([5]; application rate 320 g/ha)?
Its damage in corn is “no damage”.

What about the “activity in % (caterpillars killed)” value [17] of the same compound?
The value was 85% and 100%.

With `Cc1ccc(-c2ccc(Cl)cc2)cc1-c1c(O)c2scnc2n(CC(F)F)c1=O` [I-a-39] as the compound, how does the damage in corn [12] read?
The damage in corn was “no damage”.

What about the “damage in oilseed rape” value [13] of the same compound?
The value was “no damage”.

And the “activity in % (spider mites killed)” value [15]?
The value was 85% and 90%.

And the damage in corn ([5]; application rate 320 g/ha)?
Its damage in corn is “no damage”.

And the “damage in oilseed rape” value [6]?
Its value is “no damage”.

And the “activity in % (caterpillars killed)” value [17]?
The value was 85% and 100%.

For `C#CCn1c(=O)c(-c2cc(-c3ccc(Cl)cc3)ccc2C)c(O)c2scnc21` [I-a-40, 6-(4′-chloro-4-methylbiphenyl-3-yl)-7-hydroxy-4-(prop-2-yn-1-yl)[1,3]thiazolo[4,5-b]pyridin-5(4H)-one], which “activity in % (beetle larvae killed)” value [11] is on record?
The value was 100%.

What about the “activity in % (caterpillars killed)” value [17] of the same compound?
Its value is 85%.

From patent publication US9307767B2, “Herbicidally and insecticidally active thiazolopyridinones” (BAYER INTELLECTUAL PROPERTY GMBH, priority 2012, dated 2016)
